Source: US20250002918A1, “COMPOSITIONS AND METHODS FOR TREATMENT OF MIC60 DEPLETED CANCERS AND METASTASIS” (The Wistar Institute of Anatomy and Biology, priority 2021, published 2025)

What was measured:
[1] = system: PC3 cells transduced with pLKO or shMic60; assay: Tumor cell proliferation; assay type: cell-based; conditions: for suppression of proliferation, Mic60-depleted vs control transfectants: PC3 cells
[2] = system: PC3 cells stably transduced with pLKO or Mic60-directed shRNA (shMic60); assay: Small-molecule drug screening, cell viability (CellTiterGlo); conditions: drug screen, 72-h incubation, based on IC50 values (FIG. 4A, 4B)
Description: (§1) FIG. 4A-FIG. 4I show therapeutic vulnerability of GCN2/Akt signaling exposed by Mic60 depletion. (FIG. 4A and FIG. 4B) PC3 cells transduced with pLKO or shMic60 were analyzed in a high-throughput drug screening (FIG. 4A), and candidate compounds with differential tumor cell killing in shCtrl- or shMic60-transduced cultures (FIG. 4B) were analyzed based on IC50 values (nM). (FIG. 4C) PC3 cells transfected with siMic60 were analyzed for differential ISR gene expression by RNA-Seq. A representative experiment is shown. (FIG. 4D) PC3 cells transfected with siCtrl or siMic60 were analyzed by Western blotting. p, phosphorylated. (FIG. 4E) PC3 cells as in FIG. 4A and FIG. 4B were transfected with ATF4-mScarlet nuclear reporter gene and analyzed by flow cytometry in two independent experiments (Exp). The percentage of cells in gated regions is indicated. (FIG. 4F) Kaplan-Meier survival curves for differential expression of DDIT3 or ATF4 in Mic60-low GBM or pan-kidney cancer cohort comprising kidney chromophobe, kidney renal clear cell carcinoma, and kidney renal papillary cell carcinoma (KIPAN) in the Human Protein Atlas database. The number of patients per each condition and P values are indicated. (FIG. 4G) PC3 cells as in FIG. 4A and FIG. 4B were incubated with vehicle (Veh) or GCN2-IN-1 small-molecule inhibitor to GCN2 and analyzed for Annexin V/PI staining by multiparametric flow cytometry. The percentage of cells in each quadrant is indicated in a representative experiment (n=2). (FIG. 4H) PC3 cells were transfected with siCtrl or GCN2-directed siRNA (siGCN2) and analyzed by Western blotting. (FIG. 4I) PC3 cells were transfected with siCtrl or GCN2-directed siRNA (siGCN2) and analyzed for cell death by Trypan blue exclusion and light microscopy after 72 h. Mean±SD.
Cell viability screening against the MedChem Express anti-cancer library (1,820 compounds) was performed using CellTiterGlo (Promega). PC3 cells stably transduced with pLKO or Mic60-directed shRNA (shMic60) were maintained in complete media, trypsinized, and plated (500 cells/well) in 40 μL of complete medium the day before the experiment in white, clear-bottom 384-well plates. A total of 50 nL of test compound was added to each well using the Janus MDT Nanohead (Perkin-Elmer). Each compound was screened at a final concentration of 10, 1, 0.1, and 0.01 μM. After a 72-h incubation at 37° C. in the presence of 5% CO2, 20 μL of the CellTiterGlo reagent was added to each well. After 15 min, luminescence was measured using the Envision Multimode plate reader (PerkinElmer). The raw data were normalized to % inhibition, where 0% is the relative light units (RLU) in the presence of dimethylsulfoxide, and 100% is the RLU in the presence of 1 μM bortezomib. Estimated half maximal inhibitory concentration (IC50) values for each compound were determined using nonlinear regression fits on the data to a one-site binding model in XlFit (ID Business Solutions Ltd. [IDBS]). Because only 4 data points were used in this calculation, the top and bottom of the curve was fixed to 100% and 0%, respectively, with a constant slope value of 1.

Mic60-silenced cells = assay: Tumor cell invasion (Matrigel); assay type: cell-based; conditions: Mic60-silenced cells reconstituted with the scavenger
Description: FIG. 3A-FIG. 3G show Mic60 regulation of tumor cell motility and metastasis. (FIG. 3A) PC3 cells transduced with pLKO or shMic60 were analyzed for circularity (Top; 1=perfect sphere) and surface area (Bottom). Each symbol corresponds to an individual determination. Min to max values are indicated (pLKO, n=36; shMic60, n=39). *** P<0.0001 to 0.0009. (FIG. 3B) PC3 cells as in FIG. 3A were analyzed by Western blotting. (FIG. 3C) PC3 cells transduced with pLKO or shMic60 were analyzed for single-cell motility in 2D contour plots by time-lapse video microscopy. Each tracing corresponds to the movements of an individual cell (pLKO, n=90; shMic60, n=94). The average speed of cell movements (velocity [Vel], μm/min) and distance traveled (Dis; μm) are indicated. Mean±SD (n=3). P<0.0001. […] (FIG. 3D) PC3 cells as in FIG. 3A or WT or Mic60 KO PC3 cells were analyzed for invasion across Matrigel-coated inserts and quantified. […] (FIG. 3F) PC3 cells as in FIG. 3A were injected into the spleen of NSG mice, and liver samples harvested after 11 d were stained with hematoxylin/eosin, and the number (FIG. 3F, Top) and surface area (FIG. 3F, Bottom) of metastatic foci were quantified by morphometry. […] (FIG. 3G) Matched patient samples of LUAD representative of normal parenchyma (N), primary tumor (P), or metastasis (M) were analyzed for differential Mic60 expression by RT-PCR. […]

[3] = system: PC3 cells transduced with pLKO or shMic60; assay: Caspase-dependent cell death; assay type: cell-based
[4] = system: PC3 cells transduced with pLKO or shMic60; assay: Annexin V/PI staining by multiparametric flow cytometry; assay type: cell-based; conditions: preferentially in Mic60-silenced PC3 cells compared to control cultures (FIG. 4G)
Description: as §1, with “(FIG. 4F) Kaplan-Meier survival curves for differential expression of DDIT3 or ATF4 in Mic60-low GBM or pan-kidney cancer cohort comprising kidney chromophobe, kidney renal clear cell carcinoma, and kidney renal papillary cell carcinoma (KIPAN) in the Human Protein Atlas database. The number of patients per each condition and P values are indicated.” left out, “The percentage of cells in each quadrant is indicated in a representative experiment (n=2).” left out, “Mean±SD.” left out

PC3 cells = assay: Single-cell motility by time-lapse videomicroscopy; assay type: cell-based; conditions: Mic60-silenced PC3 cells vs control transfectants
Description: (§2) Cells ([…]) were seeded in 4-well Ph+ Chambers (Ibidi) in complete growth medium and allowed to attach for 16 h at 37° C. Time-lapse videomicroscopy was performed over 10 h, with a time-lapse interval of 10 min. Stacks were imported into Image J Fiji software for analysis, and at least 10 to 20 cells per condition were tracked using the Manual Tracking plugin for Image J Fiji. Tracking data were exported into the Chemotaxis and Migration Tool v. 2.0 (Ibidi) for graphing and calculation of the mean and SD of speed and accumulated distance of movement. For directional cell migration, wounds were made in monolayers of PC3 cells using a 10-μL pipette tip. Cell debris were washed off, and cultures were maintained in complete growth medium containing 10% fetal bovine serum at 37° C. and 5% CO2. Time-lapse imaging of migrating cells was performed using a TE300 inverted microscope (Nikon) equipped with an incubator set at 37° C., 5% CO2, and 95% relative humidity. Each image was acquired using a 10× objective of the same fields at each 10-min interval for a total of 24 h.

LN229 cells = assay: Single-cell motility by time-lapse videomicroscopy; assay type: cell-based; conditions: Mic60-silenced LN229 cells vs control transfectants
Description: as §2

[5] = system: Mic60-silenced tumor cells; assay: Focal adhesion (FA) dynamics after Mic60 silencing; assay type: cell-based

Compound: NC1(c2ccc(-c3nc4ccn5c(=O)[nH]nc5c4cc3-c3ccccc3)cc2)CCC1 [MK2206]
- suppression of proliferation, Mic60-depleted vs control transfectants [1]: suppressed proliferation selectively of Mic60-depleted PC3 cells

Compound: C/C(=N\NC(=S)N1CCC1)c1ccccn1 [NSC319726]
- differential tumor cell killing, Mic60-silenced vs control cultures [2]: preferential killing against Mic60-low PC3 cells

Compound: CC1(C)CCC(c2ccc(Cl)cc2)=C(CN2CCN(c3ccc(C(=O)NS(=O)(=O)c4ccc(N[C@H](CCN5CCOCC5)CSc5ccccc5)c(S(=O)(=O)C(F)(F)F)c4)cc3)CC2)C1 [Navitoclax]
- differential tumor cell killing, Mic60-silenced vs control cultures [2]: preferential killing against Mic60-low PC3 cells

Compound: CC1(C)CC(NC(=O)C[P+](c2ccccc2)(c2ccccc2)c2ccccc2)CC(C)(C)N1[O] [MitoTempo]
- tumor cell invasion (Mic60-silenced cells): normalized tumor cell invasion to control levels

Compound: c1nn(C2CCOCC2)cc1Nc1ncc2nnn(-c3ccc4cn[nH]c4c3)c2n1 [GCN2-IN-1]
- caspase-dependent cell death ([3]; pLKO control PC3 cells): 8.4±6.3%
- caspase-dependent cell death ([3]; shMic60 PC3 cells, P=0.04 vs pLKO): 23.1±5.6%
- proliferation (cell number) with GCN2 inhibitor ([1]; pLKO control PC3 cells): 3.3×10^5±0.62×10^5 cells
- proliferation (cell number) with GCN2 inhibitor ([1]; shMic60 PC3 cells, P=0.009 vs pLKO): 1.95×10^5±0.4×10^5 cells
- Annexin V-associated apoptosis [4]: activated Annexin V-associated apoptosis
- differential tumor cell killing, Mic60-silenced vs control cultures [2]: killed Mic60-silenced PC3 cells more efficiently than control cultures

Compound: COc1cc([C@@H]2c3cc4c(cc3[C@H](O)[C@H]3COC(=O)[C@H]23)OCO4)cc(OC)c1OC [podophyllotoxin]
- differential tumor cell killing, Mic60-silenced vs control cultures [2]: preferential killing against Mic60-low PC3 cells

Compound: O=c1[nH]c2ccccc2n1C1CCN(Cc2ccc(-c3nc4cc5[nH]cnc5cc4nc3-c3ccccc3)cc2)CC1 [Akt inhibitor VIII]
- suppression of proliferation, Mic60-depleted vs control transfectants [1]: suppressed proliferation selectively of Mic60-depleted PC3 cells
- differential tumor cell killing, Mic60-silenced vs control cultures [2]: killed Mic60-silenced PC3 cells more efficiently than control cultures

Compound: CS(=O)(=O)N1CCC(NC(=O)c2[nH]ncc2NC(=O)c2c(Cl)cccc2Cl)CC1 [NVP-LCQ195]
- differential tumor cell killing, Mic60-silenced vs control cultures [2]: preferential killing against Mic60-low PC3 cells

Compound: COc1cc(/C=C/C(=O)CC(=O)/C=C/c2ccc(O)c(OC)c2)ccc1O [curcumin]
- differential tumor cell killing, Mic60-silenced vs control cultures [2]: preferential killing against Mic60-low PC3 cells

Compound: C/C(=N\NC(=O)c1cccc(S(=O)(=O)N2CCOCC2)c1)c1cc(Cl)ccc1O [SP2509]
- differential tumor cell killing, Mic60-silenced vs control cultures [2]: preferential killing against Mic60-low PC3 cells

Compound: CN(c1ncccc1CNc1nc(Nc2ccc3c(c2)CC(=O)N3)ncc1C(F)(F)F)S(C)(=O)=O [FAKi]
- single-cell motility (PC3 cells): restored the single-cell motility of PC3 or LN229 cells to levels of control transfectants
- single-cell motility (LN229 cells): restored the single-cell motility of PC3 or LN229 cells to levels of control transfectants
- FA dynamics [5]: normalized FA dynamics

Compound: COc1cc2c(cc1OC)CN(CCc1ccc(NC(=O)c3cc(OC)c(OC)cc3NC(=O)c3cnc4ccccc4c3)cc1)CC2 [Tariquidar]
- differential tumor cell killing, Mic60-silenced vs control cultures [2]: preferential killing against Mic60-low PC3 cells
